Source: ChEMBL document CHEMBL1156829 (Proc Natl Acad Sci U S A, 2008)
pEC50: −log10 of the molar value.

Key:
Plasmodium falciparum [1] = test: NOVARTIS: Inhibition of Plasmodium falciparum W2 (drug-resistant) proliferation in erythrocyte-based infection assay; type: functional, organism-based; conditions: Plasmodium falciparum, W2; read-out: EC50
Plasmodium falciparum [2] = test: NOVARTIS: Inhibition of Plasmodium falciparum 3D7 (drug-susceptible) proliferation in erythrocyte-based infection assay; type: functional, organism-based; conditions: Plasmodium falciparum, 3D7
[3] = NOVARTIS: Cytotoxicity against human hepatocellular carcinoma cell line (Huh7); type: toxicity, cell-based, Huh-7; conditions: Huh7 cells (hepatocellular carcinoma cell line)

Row | Structure (SMILES) | pEC50 (Plasmodium falciparum [1]) | pEC50 (Plasmodium falciparum [2]) | CC50 [3] [nM]
1 | Cc1c2ccccc2c(-c2ccccc2)c2ccccc12 | 6.20 | 5.91 | 6000
2 | Cc1cccn2c(=O)c3cc(C(=O)NC4CCCC4)c(=N)n(CCc4ccccc4)c3nc12 | 5.48 | 5.66 | > 100000
3 | O=C(NCCCN1CCCC1=O)c1cccn2c(=O)c3ccc(Cl)cc3nc12 | < 6.04 | < 5.87 | > 10000
4 | CCOc1ccc2nc(C)c(CN(C)Cc3ccccc3)c(O)c2c1 | 6.01 | < 5.90 | > 10000
5 | COc1ccccc1N1CCN(c2ccc(NC(=O)c3ccc(F)cc3)cc2C(=O)N2CCCC2)CC1 | 6.83 | < 5.90 | > 10000
6 | CCOC(=O)c1ccc2nc3c(nc2c1)C(=O)c1ccccc1C3=O | 7.63 | 7.57 | 512
7 | CCC(Sc1nc2ccccc2n1C(C)=O)C(=O)NC1=NN=C(c2ccc(Br)cc2)CS1 (configuration not stated) | 6.27 | 6.26 | 46700
8 | Cc1ccc(S(=O)(=O)N=C2C=C(Sc3nnc[nH]3)C(=O)c3ccccc32)cc1 | 6.05 | 5.81 | 12800
9 | CCn1c(SCC(=O)NCCc2ccccc2)nc2sc3c(c2c1=O)CCN(C)C3 | 5.51 | < 5.32 | > 100000
10 | CC(C)(C)c1ccc(Oc2ccc(N3C(=O)C4CC=CCC4C3=O)cc2)cc1 (configuration not stated) | < 5.99 | < 5.90 | > 10000
11 | CN(C)CCNCc1cc(-c2ccnc3cc(Cl)ccc23)ccc1O | 6.82 | 6.92 | 45600
12 | CCOC(=O)C1=C(C)NC2=C(C(=O)CC(c3ccc(OC)c(OC)c3)C2)C1c1cccc(Cl)c1 (configuration not stated) | 7.25 | 7.05 | > 74600
13 | CCOc1ccc(NC(=O)c2ccc(I)o2)cc1 | 5.24 | 5.31 | 69600
14 | COc1ccc(CCn2c(SCC(=O)N3CCN(c4ccccc4OC)CC3)nc3ccccc3c2=O)cc1OC | < 6.06 | < 5.90 | > 10000
15 | O=C(O)CCNc1ccccc1[N+](=O)[O-] | < 5.37 | < 5.07 | > 100000
16 | CCOC(=O)C1=C(C)NC2=C(C(=O)CC(c3ccc(OC)c(OC)c3)C2)C1c1ccccc1OC (configuration not stated) | 7.31 | 7.13 | > 100000
17 | CC1CCN(S(=O)(=O)c2ccc(C(=O)Nc3sc4c(c3C(N)=O)CCN(C)C4)cc2)CC1 | < 6.18 | < 5.90 | > 10000

Row | Structure (SMILES) | pEC50 (Plasmodium falciparum [1]) | pEC50 (Plasmodium falciparum [2]) | CC50 [3] [nM]
18 | COc1cc(C=NNc2nc3ccccc3[nH]2)ccc1O | 6.51 | 6.69 | 43100
19 | COc1cccc2c1OCC(C(=O)Nc1ccc(C)cc1)=C2 | < 4.90 | 6.34 | 54700
20 | Cc1ccc2nc(C)cc(NCCN(C)C)c2c1 | 6.15 | 6.44 | 59100
21 | CC=C[C@H]1O[C@@](O)([C@@H](C)C(O)C(C)[C@H]2OC(=O)C(OC)=CC(C)=C[C@@H](C)[C@@H](O)[C@@H](C)[C@@H](O)C(C)CC(C)=CC=C[C@@H]2OC)C[C@@H](O[C@H]2C[C@@H](O)[C@H](OC(N)=O)[C@@H](C)O2)[C@@H]1C (some centres not stated) | 6.62 | < 5.78 | > 10000
22 | O=C(N1CCCCC1)n1nnc2ccccc21 | 6.40 | 5.88 | > 100000
23 | O=C(/C=C/c1ccc(Br)cc1)NC(=O)c1ccccc1O | 5.96 | < 5.90 | > 10000
24 | O=[N+]([O-])c1ccc(-c2nc3ccccc3n2-c2cc(-c3ccccc3)nn2-c2ccccc2)cc1 | < 6.21 | < 5.79 | > 10000
25 | CC(C)CC(=O)N(C)CCCNc1ccnc2cc(Cl)ccc12 | 6.92 | 6.13 | 7440
26 | O=C(C1CCC1)N1CCN(c2ccccn2)CC1 | < 6.04 | < 5.90 | > 10000
27 | COc1ccc(C2=Nc3cc(C(=O)NCCN4CCOCC4)ccc3CN2C(C)C)cc1 | 5.82 | 5.28 | > 100000
28 | CCOc1ccc(C2c3[nH]c4ccccc4c3CCN2C(=O)c2cc3cc(Br)ccc3o2)cc1 (configuration not stated) | 6.87 | 6.50 | > 100000
29 | CCCCn1nccc1Nc1cc(C)c(C#N)c2nc3ccccc3n12 | 5.58 | 5.35 | > 100000
30 | S=P(OCC1C(COP(=S)(c2ccccc2)c2ccccc2)C1(Cl)Cl)(c1ccccc1)c1ccccc1 (configuration not stated) | 6.32 | 6.41 | > 100000
31 | CCCCCc1ccc(OCCCC[n+]2cccc(C)c2C)c(CCCCC)c1 | 6.92 | 6.67 | 3000
32 | Cc1ccc(-c2cc(N3CCCC3CO)n3nccc3n2)cc1 (configuration not stated) | 5.90 | 5.94 | > 100000
33 | O=[N+]([O-])c1ccc(NCCNc2nc(N3CCCC3)nc3ccccc23)cc1 | 6.48 | 6.25 | 19200
34 | CCOC(=O)C1=C(C)N(c2ccc(N(C)C)cc2)C(C)=C(C(=O)OCC)C1c1ccc(Br)cc1 | 6.05 | < 5.95 | 19600
